Results: paper PMC6832141, “Synthesis and Cyclooxygenase Inhibition of Sulfonamide-Substituted (Dihydro)Pyrrolo[3,2,1-hi]indoles and Their Potential Prodrugs” (Molecules, 2019)

What was measured:
human COX-2 = biological target: T1, human COX-2 (Homo sapiens, UniProt P35354); test: COX Fluorescent Inhibitor Screening Assay Kit (Cayman 700100), COX-2; format: biochemical; details: for SI (selectivity index): SI = IC50 (COX-1)/IC50 (COX-2); for IC50: human COX-2, values marked ** : compounds were screened at a concentration of 100 µM
T1 construct: purchased Cayman Chemical 700100
T1 sequence (P35354 18-604): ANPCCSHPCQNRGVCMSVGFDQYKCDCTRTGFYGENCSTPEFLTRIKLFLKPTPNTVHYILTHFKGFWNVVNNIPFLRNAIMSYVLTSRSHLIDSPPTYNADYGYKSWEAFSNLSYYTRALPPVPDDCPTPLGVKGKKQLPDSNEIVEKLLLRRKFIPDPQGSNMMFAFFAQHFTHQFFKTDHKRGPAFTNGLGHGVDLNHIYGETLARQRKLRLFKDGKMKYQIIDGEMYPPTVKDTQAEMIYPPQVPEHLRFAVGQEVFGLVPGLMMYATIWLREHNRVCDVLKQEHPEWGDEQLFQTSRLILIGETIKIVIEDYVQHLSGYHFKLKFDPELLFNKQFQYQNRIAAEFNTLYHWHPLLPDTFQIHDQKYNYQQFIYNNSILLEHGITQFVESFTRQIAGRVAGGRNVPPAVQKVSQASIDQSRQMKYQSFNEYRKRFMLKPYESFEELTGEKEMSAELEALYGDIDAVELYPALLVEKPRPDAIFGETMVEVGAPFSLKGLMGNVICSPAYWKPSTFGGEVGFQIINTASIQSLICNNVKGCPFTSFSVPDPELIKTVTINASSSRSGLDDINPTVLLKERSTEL

[1] = Lipophilicity, logD7.4 by HPLC method (Donovan and Pescatore); format: physicochemical; details: HPLC column ODP-50 4B (Shodex Asahipak 50 × 4.6 mm); pH 7.4, HPLC system 2, MeOH/PBS gradient
Description: The lipophilicity of all synthesized compounds was determined as logD7.4HPLC value (Table 1) using an HPLC method originally described by Donovan and Pescatore.
Column chromatography was performed using silica gel (mesh size 40–63 µm). Thin-layer chromatography (TLC) was performed on silica gel F-254 aluminum plates and visualized using UV (254 nm/366 nm). Analytical HPLC analysis was carried out with the following systems: (system 1) Agilent 1200 HPLC (Santa Clara, CA, USA; pump G1311A, autosampler G1329A, column oven G1316A, degasser G1322A, UV detector G1315D, γ detector Gabi Star (Raytest), Luna C18 column (Phenomenex, 250 × 4.6 mm), flow rate = 1 mL/min, isocratic eluent (MeCN/0.1% TFA in H2O 70/30 (v/v)); (system 2) Agilent 1100 HPLC (Santa Clara, CA, USA; binary pump G1312A, autosampler G1313A, column oven G1316A, degasser G1322A, UV detector G1314A, γ detector Gabi Star (Raytest, Straubenhardt, Germany); column ODP-50 4B (Shodex Asahipak 50 × 4.6 mm); eluent: MeOH/PBS (10 mM, pH 7.4) gradient t0 min 30/70 - t25 min 95/5 - t27 min 95/5 - t28 min 30/70 - t40 min 30/70, flow rate = 0.6 mL/min; (system 3) waters UPLC I-Class (Milford, MA, USA; binary gradient pump BSM, autosampler FTN, column manager CM, and diode array detector PDAeλ coupled to Waters Xevo TQ-S), column Aquity UPLC® BEH C18 column (waters, 100 × 2.1 mm, 1.7 µm, 130 Å), eluent: (A): 0.1% acetic acid in MeCN/MeOH 1/1/(B): 0.1% acetic acid in H2O; flow rate 0.4 mL/min), gradient: t0 min 45/55 - t0.5 min 45/55 - t5.5 min 95/5 - t7.0 min 95/5 - t8.0 min 45/55 – t8.5 min 45/55; (system 4) column (Kinetex C-18 (Phenomenex 50 × 2.1 mm, 1.7 µm, 100 Å), Shimadzu Nexera X2 UHPLC system (Kyoto, Japan; degasser DGU-20A3R and DGU-20A5R, pump LC-30AD, autosampler SIL-30AC, column oven CTO-20AC with two column switching valves FCV-14AH, diode array detector SPD-M30A, γ detector Gabi Star (Raytest, Straubenhardt, Germany), communication bus module CBM-20A), eluent: (A): MeCN, (B): 0.1% trifluoroacetic acid in H2O; flow rate 0.5 mL/min), gradient: t0 min 25/75 - t0.3 min 25/75 - t4.0 min 75/25 - t4.5 min 95/5 - t5.5 min 95/5 - t6.0 min 25/75 – t7.5 min 25/75. The products were monitored by an UV detector at 254 nm and purity of all compounds exceeded 95% as determined by analytical HPLC analysis (system 1 or system 3), unless otherwise stated. Semi-preparative HPLC was performed using the following system: column (C-18 Jupiter Proteo (Phenomenex 250 × 21.1 mm, 4 µm, 90 Å), Shimadzu prominence modular HPLC system (Kyoto, Japan; degasser DGU-20A5R, 2× pump LC-20AR, autosampler SIL-20AC HT, column oven CTO-20AC with column switching valve, diode array detector SPD-M20A, fluorescence detector RF-20A, and fraction collector FRC-10A, communication bus module CBM-20A), isocratic eluent 0.1% TFA in MeCN/0.1% TFA in H2O 70/30, flow rate = 10 mL/min.
The logD7.4HPLC value was determined as previously reported by us utilizing an HPLC method originally described by Donovan and Pescatore[18]. […]

ovine COX-1 = biological target: T2, ovine COX-1 (Ovis aries, UniProt P05979); test: COX Fluorescent Inhibitor Screening Assay Kit (Cayman 700100), COX-1; format: biochemical; details: values marked ** : compounds were screened at a concentration of 100 µM
T2 construct: purchased Cayman Chemical 700100
T2 sequence (P05979 25-600): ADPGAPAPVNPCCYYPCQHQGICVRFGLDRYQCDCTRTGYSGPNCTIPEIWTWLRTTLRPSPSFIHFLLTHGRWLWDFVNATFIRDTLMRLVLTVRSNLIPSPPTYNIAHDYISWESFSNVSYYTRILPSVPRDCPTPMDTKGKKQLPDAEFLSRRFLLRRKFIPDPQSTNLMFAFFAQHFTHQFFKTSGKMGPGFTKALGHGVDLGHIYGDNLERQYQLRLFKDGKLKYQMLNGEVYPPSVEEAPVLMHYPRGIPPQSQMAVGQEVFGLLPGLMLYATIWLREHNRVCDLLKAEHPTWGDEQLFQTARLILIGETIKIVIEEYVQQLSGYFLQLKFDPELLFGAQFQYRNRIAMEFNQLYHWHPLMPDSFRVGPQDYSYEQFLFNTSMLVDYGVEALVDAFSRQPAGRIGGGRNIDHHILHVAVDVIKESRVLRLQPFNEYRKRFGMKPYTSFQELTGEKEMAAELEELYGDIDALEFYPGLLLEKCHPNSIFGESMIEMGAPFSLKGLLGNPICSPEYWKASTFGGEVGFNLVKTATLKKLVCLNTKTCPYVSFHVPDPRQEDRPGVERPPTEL

[2] = cited from earlier work

Row | Compound | SI (selectivity index) (human COX-2) | IC50 (human COX-2) [µM] | chromatographic logD [1] | IC50 (ovine COX-1) [µM] | melting point [°C] | water solubility [2] [mg/mL]
1 | CCC(=O)NS(=O)(=O)c1ccc(-c2c(-c3ccccc3)noc2C)cc1 [Parecoxib sodium] |  |  |  |  |  | > 50
2 | Cc1ccc(-c2c(-c3ccc(S(N)(=O)=O)cc3)n3c4c(cccc24)CC3)cc1 [1b, 4-[4-(Sulfamoyl)phenyl]-5-(p-tolyl)-1,2-dihydropyrrolo[3,2,1-hi]indole] | 237 | 0.253 | 4.56 | 59.9 |  | 
3 | CCC(=O)NS(=O)(=O)c1ccc(-c2c(-c3ccc(Cl)cc3)c3cccc4ccn2c43)cc1 [4c, N-({4-[1-(4-chlorophenyl)pyrrolo[3,2,1-hi]indol-2-yl]phenyl}sulfonyl)propionamide] | >9.1 | 11 | 2.6 | > 100 |  | 
4 | Cc1ccc(-c2c(-c3ccc(S(N)(=O)=O)cc3)n3ccc4cccc2c43)cc1 [2b, 2-[4-(Sulfamoyl)phenyl]-1-(p-tolyl)pyrrolo[3,2,1-hi]indole] | >1087 | 0.092 | 4.73 | > 100 | 233 to 235 | 
5 | NS(=O)(=O)c1ccc(-c2c(-c3ccccc3)c3cccc4c3n2CC4)cc1 [1a, 5-Phenyl-4-[4-(sulfamoyl)phenyl]-1,2-dihydropyrrolo[3,2,1-hi]indole] | 355 | 0.107 | 4.44 | 38 |  | 
6 | CCC(=O)NS(=O)(=O)c1ccc(-c2c(-c3ccc(C)cc3)c3cccc4ccn2c43)cc1 [4b, N-({4-[1-(p-tolyl)pyrrolo[3,2,1-hi]indol-2-yl]phenyl}sulfonyl)propionamide] | >2.9 | 33.9 | 2.48 | > 100 |  | 
7 | CCC(=O)NS(=O)(=O)c1ccc(-c2c(-c3ccccc3)c3cccc4ccn2c43)cc1 [4a, N-{[4-(1-phenylpyrrolo[3,2,1-hi]indol-2-yl)phenyl]sulfonyl}propionamide] |  |  | 2.24 |  |  | 
8 | NS(=O)(=O)c1ccc(-c2c(-c3ccc(F)cc3)c3cccc4c3n2CC4)cc1 [1d, 5-(4-Fluorophenyl)-4-[4-(sulfamoyl)phenyl]-1,2-dihydropyrrolo[3,2,1-hi]indole] | 85 | 0.092 | 4.53 | 7.8 |  | 
9 | NS(=O)(=O)c1ccc(-c2c(-c3ccc(F)cc3)c3cccc4ccn2c43)cc1 [2d, 1-(4-Fluorophenyl)-2-[4-(sulfamoyl)phenyl]pyrrolo[3,2,1-hi]indole] | >1124 | 0.089 | 4.64 | > 100 | 258 to 259 | 

Second part, led by results:

Row | SI (selectivity index) (human COX-2) | IC50 (human COX-2) [µM] | chromatographic logD [1] | IC50 (ovine COX-1) [µM] | melting point [°C] | Compound | water solubility [2] [mg/mL]
10 | 144 | 0.106 | 4.9 | 15.3 |  | NS(=O)(=O)c1ccc(-c2c(-c3ccc(Cl)cc3)c3cccc4c3n2CC4)cc1 [1c, 5-(4-Chlorophenyl)-4-[4-(sulfamoyl)phenyl]-1,2-dihydropyrrolo[3,2,1-hi]indole] | 
11 |  | > 100 | 2.31 | > 100 |  | CCC(=O)NS(=O)(=O)c1ccc(-c2c(-c3ccc(C)cc3)c3cccc4c3n2CC4)cc1 [3b, N-({4-[5-(p-tolyl)-1,2-dihydropyrrolo[3,2,1-hi]indol-4-yl]phenyl}sulfonyl)propionamide] | 
12 |  | > 100 | 2.05 | > 100 |  | CCC(=O)NS(=O)(=O)c1ccc(-c2c(-c3ccccc3)c3cccc4c3n2CC4)cc1 [3a, N-{[4-(5-phenyl-1,2-dihydropyrrolo[3,2,1-hi]indol-4-yl)phenyl]sulfonyl}propionamide] | 
13 | >3.8 | 26.5 | 2.3 | > 100 |  | CCC(=O)NS(=O)(=O)c1ccc(-c2c(-c3ccc(F)cc3)c3cccc4ccn2c43)cc1 [4d, N-({4-[1-(4-fluorophenyl)pyrrolo[3,2,1-hi]indol-2-yl]phenyl}sulfonyl)propionamide] | 
14 | >1136 | 0.088 | 4.89 | > 100 | 270 to 273 | NS(=O)(=O)c1ccc(-c2c(-c3ccc(Cl)cc3)c3cccc4ccn2c43)cc1 [2c, 1-(4-Chlorophenyl)-2-[4-(sulfamoyl)phenyl]pyrrolo[3,2,1-hi]indole] | 
15 |  | > 100 | 2.2 | > 100 |  | CCC(=O)NS(=O)(=O)c1ccc(-c2c(-c3ccc(F)cc3)c3cccc4c3n2CC4)cc1 [3d, N-({4-[5-(4-fluorophenyl)-1,2-dihydropyrrolo[3,2,1-hi]indol-4-yl]phenyl}sulfonyl)propionamide] | 
16 | >3.8 | 26.4 | 2.49 | > 100 |  | CCC(=O)NS(=O)(=O)c1ccc(-c2c(-c3ccc(Cl)cc3)c3cccc4c3n2CC4)cc1 [3c, N-({4-[5-(4-chlorophenyl)-1,2-dihydropyrrolo[3,2,1-hi]indol-4-yl]phenyl}sulfonyl)propionamide] | 
17 | >1887 | 0.053 | 4.59 | > 100 | 218 to 220 | NS(=O)(=O)c1ccc(-c2c(-c3ccccc3)c3cccc4ccn2c43)cc1 [2a, 1-Phenyl-2-[4-(sulfamoyl)phenyl]pyrrolo[3,2,1-hi]indole] | 
